Our source for the IC50 values is patent US9255096B1, “Substituted 1,2,3,4-tetrahydrobenzo[C][2,7] naphthyridines and derivatives thereof as kinase inhibitors” (Allergan, Inc., priority 2014, dated 2016).

The target in experiment [1] is T1, VEGFR2 (Homo sapiens (Human), UniProt P35968). In words: VEGFR2 Kinase Assay (enzyme). It counts as biochemical. Conditions: purified cytoplasmic domain KDR protein, 2.7 μM ATP. The method, then: VEGFR2 Kinase Assay: Biochemical KDR kinase assays were performed in 96 well microtiter plates that were coated overnight with 75 μg/well of poly-Glu-[…]:1) in 10 mM Phosphate Buffered Saline (PBS), pH 7.4. The coated plates were washed with 2 mls per well PBS+0.05% Tween-20 (PBS-T), blocked by incubation with PBS containing 1% BSA, then washed with 2 mls per well PBS-T prior to starting the reaction. Reactions were carried out in 100 μL reaction volumes containing 2.7 μM ATP in kinase buffer (50 mM Hepes buffer pH 7.4, 20 mM MgCl2, 0.1 mM MnCl2 and 0.2 mM Na3VO4). Test compounds were reconstituted in 100% DMSO and added to the reaction to give a final DMSO concentration of 5%. Reactions were initiated by the addition 20 ul per well of kinase buffer containing 200-300 ng purified cytoplasmic domain KDR protein (BPS Bioscience, San Diego, Calif.). Following a 15 minute incubation at 30° C., the reactions were washed 2 mls per well PBS-T. 100 μl of a monoclonal anti-phosphotyrosine antibody-peroxidase conjugate diluted 1:10,000 in PBS-T was added to the wells for 30 minutes. Following a 2 mls per well wash with PBS-Tween-20, 100 μl of 0-Phenylenediamine Dihydrochloride in phosphate-citrate buffer, containing urea hydrogen peroxide, was added to the wells for 7-10 minutes as a colorimetric substrate for the peroxidase. The reaction was terminated by the addition of 100 μl of 2.5N H2SO4 to each well and read using a microplate ELISA reader set at 492 nm. IC50 values for compound inhibition were calculated directly from graphs of optical density (arbitrary units) versus compound concentration following subtraction of blank values.
Target sequence in this assay (P35968 786-1356): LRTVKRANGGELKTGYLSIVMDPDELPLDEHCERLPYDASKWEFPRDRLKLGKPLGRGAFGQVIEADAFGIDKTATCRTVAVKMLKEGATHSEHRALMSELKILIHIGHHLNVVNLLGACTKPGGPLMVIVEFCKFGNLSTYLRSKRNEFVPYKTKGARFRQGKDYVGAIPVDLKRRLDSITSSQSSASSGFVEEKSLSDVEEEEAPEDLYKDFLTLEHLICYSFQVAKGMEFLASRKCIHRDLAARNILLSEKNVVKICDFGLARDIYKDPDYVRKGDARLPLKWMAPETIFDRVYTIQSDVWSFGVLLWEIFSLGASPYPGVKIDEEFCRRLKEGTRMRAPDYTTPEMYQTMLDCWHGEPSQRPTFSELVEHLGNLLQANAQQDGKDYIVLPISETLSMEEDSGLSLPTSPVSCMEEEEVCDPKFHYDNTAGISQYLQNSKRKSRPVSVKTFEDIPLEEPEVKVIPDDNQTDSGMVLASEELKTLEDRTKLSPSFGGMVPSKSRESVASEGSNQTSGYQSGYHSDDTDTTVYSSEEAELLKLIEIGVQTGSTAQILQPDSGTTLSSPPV

Experiment [2] deals with T1, VEGFR2. Description: VEGFR2 Cellular Assay. It counts as cell-based.
Target sequence in this assay (P35968 20-1356, species assumed): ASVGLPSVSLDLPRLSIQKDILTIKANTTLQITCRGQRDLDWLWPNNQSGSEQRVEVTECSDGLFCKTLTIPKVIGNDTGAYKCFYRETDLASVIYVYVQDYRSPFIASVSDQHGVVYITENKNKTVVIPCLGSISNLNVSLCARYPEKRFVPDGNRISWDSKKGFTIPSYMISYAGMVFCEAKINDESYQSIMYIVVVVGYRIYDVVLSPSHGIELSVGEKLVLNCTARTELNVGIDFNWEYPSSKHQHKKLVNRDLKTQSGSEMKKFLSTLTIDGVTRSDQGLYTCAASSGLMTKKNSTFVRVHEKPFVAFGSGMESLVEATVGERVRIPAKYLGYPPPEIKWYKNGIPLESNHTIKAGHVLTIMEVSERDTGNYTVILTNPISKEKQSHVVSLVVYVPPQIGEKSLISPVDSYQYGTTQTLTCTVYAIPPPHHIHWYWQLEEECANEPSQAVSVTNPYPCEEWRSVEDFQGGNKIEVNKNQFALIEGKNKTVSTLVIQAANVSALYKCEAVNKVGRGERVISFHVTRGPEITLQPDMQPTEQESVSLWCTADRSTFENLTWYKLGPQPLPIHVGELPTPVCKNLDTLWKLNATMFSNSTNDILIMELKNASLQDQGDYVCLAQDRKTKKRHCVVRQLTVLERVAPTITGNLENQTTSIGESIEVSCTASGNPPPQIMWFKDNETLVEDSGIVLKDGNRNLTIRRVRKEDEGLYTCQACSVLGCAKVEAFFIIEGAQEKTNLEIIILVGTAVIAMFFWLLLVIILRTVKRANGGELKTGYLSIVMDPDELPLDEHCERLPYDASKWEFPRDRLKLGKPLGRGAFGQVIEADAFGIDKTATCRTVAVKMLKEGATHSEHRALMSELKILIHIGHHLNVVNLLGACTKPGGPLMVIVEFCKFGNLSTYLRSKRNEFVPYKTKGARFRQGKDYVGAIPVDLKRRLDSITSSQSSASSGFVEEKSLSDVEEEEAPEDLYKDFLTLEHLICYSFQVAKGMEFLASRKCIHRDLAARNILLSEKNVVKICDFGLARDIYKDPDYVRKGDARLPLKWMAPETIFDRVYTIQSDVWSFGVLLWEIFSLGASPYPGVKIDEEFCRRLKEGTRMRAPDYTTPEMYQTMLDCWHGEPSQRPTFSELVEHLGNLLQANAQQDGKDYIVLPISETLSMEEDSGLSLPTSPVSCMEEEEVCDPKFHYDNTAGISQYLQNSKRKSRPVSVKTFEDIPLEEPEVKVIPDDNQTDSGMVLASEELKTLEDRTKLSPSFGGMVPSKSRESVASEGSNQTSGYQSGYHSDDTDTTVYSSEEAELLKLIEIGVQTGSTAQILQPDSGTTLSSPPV
In experiment [3] the target is T2, PDGFRβ (Homo sapiens (Human), UniProt P09619). In words: PDGFRβ Kinase Assay (enzyme). The format is biochemical. Conditions: purified cytoplasmic domain PDGFR-b protein, 36 μM ATP. As to the method:
Biochemical PDGFRβ kinase assays were performed in 96 well microtiter plates that were coated overnight with 75 μg of poly-Glu-Tyr (4:1) in 10 mM Phosphate Buffered Saline (PBS), pH 7.4. The coated plates were washed with 2 mls per well PBS+0.05% Tween-20 (PBS-T), blocked by incubation with PBS containing 1% BSA, then washed with 2 mls per well PBS-T prior to starting the reaction. Reactions were carried out in 100 μL reaction volumes containing 36 μM ATP in kinase buffer (50 mM Hepes buffer pH 7.4, 20 mM MgCl2, 0.1 mM MnCl2 and 0.2 mM Na3VO4). Test compounds were reconstituted in 100% DMSO and added to the reaction to give a final DMSO concentration of 5%. Reactions were initiated by the addition 20 ul per well of kinase buffer containing 200-300 ng purified cytoplasmic domain PDGFR-b protein (Millipore). Following a 60 minute incubation at 30° C., the reactions were washed 2 mls per well PBS-T. 100 μl of a monoclonal anti-phosphotyrosine antibody-peroxidase conjugate diluted 1:10,000 in PBS-T was added to the wells for 30 minutes. Following a 2 mls per well wash with PBS-Tween-20, 100 μl of 0-Phenylenediamine Dihydrochloride in phosphate-citrate buffer, containing urea hydrogen peroxide, was added to the wells for 7-10 minutes as a colorimetric substrate for the peroxidase. The reaction was terminated by the addition of 100 μl of 2.5N H2SO4 to each well and read using a microplate ELISA reader set at 492 nm. IC50 values for compound inhibition were calculated directly from graphs of optical density (arbitrary units) versus compound concentration following subtraction of blank values.
Target sequence in this assay (P09619 554-1106): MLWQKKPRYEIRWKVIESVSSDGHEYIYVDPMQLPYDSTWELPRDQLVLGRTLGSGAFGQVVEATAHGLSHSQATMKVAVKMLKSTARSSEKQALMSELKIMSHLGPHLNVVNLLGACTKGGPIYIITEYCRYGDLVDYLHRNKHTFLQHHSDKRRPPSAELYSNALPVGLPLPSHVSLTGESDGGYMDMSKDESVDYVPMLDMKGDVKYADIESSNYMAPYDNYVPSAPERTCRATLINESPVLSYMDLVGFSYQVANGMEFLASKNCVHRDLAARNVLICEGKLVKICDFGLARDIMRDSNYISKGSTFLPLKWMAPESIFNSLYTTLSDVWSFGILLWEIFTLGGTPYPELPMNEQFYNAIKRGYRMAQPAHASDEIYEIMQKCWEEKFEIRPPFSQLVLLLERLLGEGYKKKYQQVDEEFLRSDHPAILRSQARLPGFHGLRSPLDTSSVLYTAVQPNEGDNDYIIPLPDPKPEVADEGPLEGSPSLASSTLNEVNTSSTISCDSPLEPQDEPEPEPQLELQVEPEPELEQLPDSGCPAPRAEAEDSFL

Experiment [4] concerns the target T2, PDGFRβ. Description: PDGFRβ Cellular Assay. It counts as cell-based.
Target sequence in this assay (P09619 33-1106, species assumed): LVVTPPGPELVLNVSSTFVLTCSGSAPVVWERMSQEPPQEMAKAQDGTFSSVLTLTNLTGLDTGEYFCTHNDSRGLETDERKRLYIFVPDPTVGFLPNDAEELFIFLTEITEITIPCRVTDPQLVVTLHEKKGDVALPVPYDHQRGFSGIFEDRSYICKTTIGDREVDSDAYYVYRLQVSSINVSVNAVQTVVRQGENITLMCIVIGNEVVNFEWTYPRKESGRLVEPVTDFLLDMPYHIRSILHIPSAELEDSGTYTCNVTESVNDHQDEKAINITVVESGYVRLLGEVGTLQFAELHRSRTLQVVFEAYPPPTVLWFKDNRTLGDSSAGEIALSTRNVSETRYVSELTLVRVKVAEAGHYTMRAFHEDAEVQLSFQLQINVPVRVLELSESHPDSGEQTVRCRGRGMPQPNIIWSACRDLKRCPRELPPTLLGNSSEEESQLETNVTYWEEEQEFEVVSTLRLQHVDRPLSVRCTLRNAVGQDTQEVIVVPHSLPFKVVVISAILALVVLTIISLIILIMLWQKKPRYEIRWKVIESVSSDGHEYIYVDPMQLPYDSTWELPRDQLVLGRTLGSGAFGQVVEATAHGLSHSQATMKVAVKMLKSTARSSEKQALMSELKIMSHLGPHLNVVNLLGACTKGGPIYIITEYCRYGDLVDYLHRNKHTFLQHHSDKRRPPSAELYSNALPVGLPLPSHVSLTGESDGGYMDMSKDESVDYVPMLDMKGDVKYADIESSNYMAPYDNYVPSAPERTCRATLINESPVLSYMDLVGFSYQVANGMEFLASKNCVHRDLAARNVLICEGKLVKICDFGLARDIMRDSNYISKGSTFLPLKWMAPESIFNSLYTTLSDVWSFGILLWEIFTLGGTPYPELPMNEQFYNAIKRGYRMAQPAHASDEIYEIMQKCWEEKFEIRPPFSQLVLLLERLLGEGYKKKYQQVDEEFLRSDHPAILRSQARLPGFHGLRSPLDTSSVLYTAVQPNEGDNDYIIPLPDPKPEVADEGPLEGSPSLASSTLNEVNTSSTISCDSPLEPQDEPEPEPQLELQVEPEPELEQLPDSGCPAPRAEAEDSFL

Molecules are shown by their SMILES.

Consider `Cc1cccc(NC(=O)c2cccc(N3CCc4c(cnc5ccccc45)C3)c2)c1` [Example 3, 3-(1,4-dihydrobenzo[c]-2,7-naphthyridin-3(2H)-yl)-N-(3-methylphenyl)benzamide], for which the IC50 was 7 nM at VEGFR2 [1], 23 nM against VEGFR2 [2] and 16 nM at PDGFRβ [3].
In the case of `CCc1cccc(NC(=O)c2cccc(N3CCc4c(cnc5ccccc45)C3)c2)c1` [Example 4, 3-(1,4-dihydrobenzo[c]-2,7-naphthyridin-3(2H)-yl)-N-(3-ethylphenyl)benzamide], the IC50 worked out at 6 nM on VEGFR2 [1], 58 nM against PDGFRβ [4], 19 nM at VEGFR2 [2] and 10 nM against PDGFRβ [3].
As for `CC(C)c1cccc(NC(=O)c2cccc(N3CCc4c(cnc5ccccc45)C3)c2)c1` [Example 5, 3-(1,4-dihydrobenzo[c]-2,7-naphthyridin-3(2H)-yl)-N-(3-isopropylphenyl)benzamide], the IC50 on VEGFR2 [1] was 7 nM; on PDGFRβ [4], 200 nM; against VEGFR2 [2], 30 nM; on PDGFRβ [3], 15 nM.
On to `CC(C)c1ccc(NC(=O)c2cccc(N3CCc4c(cnc5ccccc45)C3)c2)cc1` [Example 6, 3-(1,4-dihydrobenzo[c]-2,7-naphthyridin-3(2H)-yl)-N-(4-isopropylphenyl)benzamide], for which the half-inhibitory concentration (IC50) at VEGFR2 [1] was found to be 8 nM; at VEGFR2 [2], 71 nM; on PDGFRβ [3] it was 16 nM.
As to `O=C(Nc1cccc(C(F)(F)F)c1)c1cccc(N2CCc3c(cnc4ccccc34)C2)c1` [Example 7, 3-(1,4-dihydrobenzo[c]-2,7-naphthyridin-3(2H)-yl)-N-[3-(trifluoromethyl)phenyl]benzamide], the IC50 against VEGFR2 [1] was 10 nM; at PDGFRβ [4], 103 nM; at VEGFR2 [2] it was 46 nM; at PDGFRβ [3], 14 nM.
Regarding `COc1cc2ncc3c(c2cc1OC)CCN(c1cccc(C(=O)Nc2cccc(C(C)C)c2)c1)C3` [Example 10, 3-(8,9-dimethoxy-1,4-dihydrobenzo[c]-2,7-naphthyridin-3(2H)-yl)-N-(3-isopropylphenyl)benzamide], the IC50 on VEGFR2 [1] was 7 nM; against PDGFRβ [3] it was 11 nM.
For the compound `COc1cc2ncc3c(c2cc1OC)CCN(c1cccc(C(=O)Nc2ccc(C(C)C)cc2)c1)C3` [Example 11, 3-(8,9-dimethoxy-1,4-dihydrobenzo[c]-2,7-naphthyridin-3(2H)-yl)-N-(4-isopropylphenyl)benzamide], the 50% inhibitory concentration (IC50) against VEGFR2 [1] stood at 9 nM; at VEGFR2 [2], 20 nM; against PDGFRβ [3], 18 nM.
For `CCc1cccc(NC(=O)c2cccc(N3CCc4c(cnc5ccsc45)C3)c2)c1` [Example 14, 3-(8,9-dihydrothieno[3,2-c]-2,7-naphthyridin-7(6H)-yl)-N-(3-ethylphenyl)benzamide], the IC50 at VEGFR2 [1] is 5 nM; on VEGFR2 [2] it was 12 nM; against PDGFRβ [3] it was 7 nM.
